Test results reported in PubChem BioAssay (NCI).
“And” between values parts separate entries of the source, which are not always exact repeats. Equal values may be shown once.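 Cells were grown in 96-well plates and exposed to each compound for 48 hours at five concentrations; endpoints were interpolated linearly between bracketing concentrations, or set to the highest concentration if not reached. Abbreviation: GI50, concentration required for 50% inhibition of growth. TGI marks complete inhibition of growth.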

Key:
Experiment in all cases: inhibition of tumour cell growth, NCI panel, 48 h
TK-10 renal = system: TK-10 renal
HOP-92 NSCLC = system: HOP-92 NSCLC
UO-31 renal = system: UO-31 renal
RXF 393 renal = system: RXF 393 renal
RPMI-8226 leukemia = system: RPMI-8226 leukemia
MOLT-4 leukemia = system: MOLT-4 leukemia
OVCAR-4 ovarian = system: OVCAR-4 ovarian
SR leukemia = system: SR leukemia
DMS 114 small cell lung = system: DMS 114 small cell lung
SNB-19 CNS = system: SNB-19 CNS
UACC-62 melanoma = system: UACC-62 melanoma
OVCAR-5 ovarian = system: OVCAR-5 ovarian
MALME-3M melanoma = system: MALME-3M melanoma
HCC-2998 colon = system: HCC-2998 colon
KM12 colon = system: KM12 colon
SF-539 CNS = system: SF-539 CNS
LOX IMVI melanoma = system: LOX IMVI melanoma
HL-60(TB) leukemia = system: HL-60(TB) leukemia
HCT-116 colon = system: HCT-116 colon
NCI-H226 lung = system: NCI-H226 lung
EKVX NSCLC = system: EKVX NSCLC
SK-MEL-2 melanoma = system: SK-MEL-2 melanoma
NCI-H23 lung = system: NCI-H23 lung
HT29 colon = system: HT29 colon
HS 578T breast = system: HS 578T breast
MDA-MB-231 breast = system: MDA-MB-231 breast
CAKI-1 renal = system: CAKI-1 renal
SK-OV-3 ovarian = system: SK-OV-3 ovarian
NCI/ADR-RES ovarian = system: NCI/ADR-RES ovarian
786-0 renal = system: 786-0 renal
CCRF-CEM leukemia = system: CCRF-CEM leukemia
SW-620 colon = system: SW-620 colon
IGROV1 ovarian = system: IGROV1 ovarian
HCT-15 colon = system: HCT-15 colon
SK-MEL-28 melanoma = system: SK-MEL-28 melanoma
U251 CNS = system: U251 CNS
NCI-H522 lung = system: NCI-H522 lung
MDA-N = system: MDA-N
OVCAR-8 ovarian = system: OVCAR-8 ovarian
MDA-MB-435 = system: MDA-MB-435
DU-145 prostate = system: DU-145 prostate
NCI-H460 lung = system: NCI-H460 lung
HOP-62 NSCLC = system: HOP-62 NSCLC
SN12C renal = system: SN12C renal
UACC-257 melanoma = system: UACC-257 melanoma
SK-MEL-5 melanoma = system: SK-MEL-5 melanoma
A498 renal = system: A498 renal
OVCAR-3 ovarian = system: OVCAR-3 ovarian
BT-549 breast = system: BT-549 breast
PC-3 prostate = system: PC-3 prostate
SF-295 CNS = system: SF-295 CNS
SF-268 CNS = system: SF-268 CNS
K-562 leukemia = system: K-562 leukemia
T-47D breast = system: T-47D breast
ACHN renal = system: ACHN renal
MCF7 breast = system: MCF7 breast
A549 NSCLC = system: A549 NSCLC
M14 melanoma = system: M14 melanoma
COLO 205 colon = system: COLO 205 colon
SNB-75 CNS = system: SNB-75 CNS
SNB-78 CNS = system: SNB-78 CNS
DLD-1 colon = system: DLD-1 colon
LXFL 529 NSCLC = system: LXFL 529 NSCLC
DMS 273 small cell lung = system: DMS 273 small cell lung
M19-MEL melanoma = system: M19-MEL melanoma

CC(=O)OCC1OC(n2c(=S)n(-c3ccc(C)cc3)c(=O)c3ccccc32)C(OC(C)=O)C(OC(C)=O)C1OC(C)=O (centres undefined)
TGI (TK-10 renal): > 100 µM
TGI (HOP-92 NSCLC): > 100 µM
TGI (UO-31 renal): > 100 µM
TGI (RXF 393 renal): > 100 µM
TGI (RPMI-8226 leukemia): > 100 µM
TGI (MOLT-4 leukemia): > 100 µM
GI50 (OVCAR-4 ovarian): 17 µM and 45.1 µM
TGI (OVCAR-4 ovarian): 83.9 µM and > 100 µM
TGI (SR leukemia): > 100 µM
GI50 (DMS 114 small cell lung): 41.9 µM and 90 µM
TGI (DMS 114 small cell lung): > 100 µM

NC(N)=NS(=O)(=O)c1ccc(NC(=O)c2cccc3c(NNc4ccc(C(=O)O)cc4)c4ccccc4nc23)cc1
TGI (SNB-19 CNS): > 100 µM
TGI (UACC-62 melanoma): > 100 µM
TGI (OVCAR-5 ovarian): > 100 µM
TGI (MALME-3M melanoma): > 100 µM
TGI (TK-10 renal): > 100 µM
TGI (HCC-2998 colon): > 100 µM
TGI (KM12 colon): > 100 µM
TGI (SF-539 CNS): > 100 µM
TGI (HOP-92 NSCLC): > 100 µM
TGI (LOX IMVI melanoma): > 100 µM
TGI (UO-31 renal): > 100 µM
TGI (RXF 393 renal): > 100 µM
TGI (HL-60(TB) leukemia): > 100 µM
TGI (HCT-116 colon): > 100 µM
TGI (RPMI-8226 leukemia): > 100 µM
TGI (NCI-H226 lung): > 100 µM
TGI (MOLT-4 leukemia): > 100 µM
TGI (EKVX NSCLC): > 100 µM
TGI (SK-MEL-2 melanoma): 95.7 µM
TGI (NCI-H23 lung): > 100 µM
TGI (HT29 colon): > 100 µM
TGI (HS 578T breast): > 100 µM
TGI (MDA-MB-231 breast): > 100 µM
TGI (CAKI-1 renal): > 100 µM
TGI (SK-OV-3 ovarian): > 100 µM
TGI (NCI/ADR-RES ovarian): > 100 µM
TGI (786-0 renal): > 100 µM
TGI (CCRF-CEM leukemia): 85.2 µM
TGI (SW-620 colon): > 100 µM
TGI (IGROV1 ovarian): > 100 µM
TGI (HCT-15 colon): > 100 µM
TGI (SK-MEL-28 melanoma): > 100 µM
TGI (U251 CNS): > 100 µM
TGI (OVCAR-4 ovarian): > 100 µM
TGI (NCI-H522 lung): > 100 µM
TGI (MDA-N): > 100 µM
TGI (OVCAR-8 ovarian): > 100 µM
TGI (MDA-MB-435): > 100 µM
TGI (DU-145 prostate): > 100 µM
TGI (NCI-H460 lung): > 100 µM
TGI (HOP-62 NSCLC): > 100 µM
TGI (SN12C renal): > 100 µM
TGI (UACC-257 melanoma): > 100 µM
TGI (SK-MEL-5 melanoma): > 100 µM
TGI (SR leukemia): > 100 µM
TGI (A498 renal): 98.2 µM
TGI (OVCAR-3 ovarian): > 100 µM
TGI (BT-549 breast): > 100 µM
TGI (PC-3 prostate): > 100 µM
TGI (SF-295 CNS): > 100 µM
TGI (SF-268 CNS): > 100 µM
TGI (K-562 leukemia): > 100 µM
TGI (T-47D breast): > 100 µM
TGI (ACHN renal): > 100 µM
TGI (MCF7 breast): > 100 µM
TGI (A549 NSCLC): > 100 µM
TGI (M14 melanoma): > 100 µM
TGI (COLO 205 colon): > 100 µM
TGI (SNB-75 CNS): > 100 µM

COc1c(Br)cc(Br)c(OC)c1-c1ccc[nH]1
TGI (UACC-62 melanoma): > 100 µM
TGI (OVCAR-5 ovarian): > 100 µM
TGI (TK-10 renal): > 100 µM
TGI (KM12 colon): > 100 µM
TGI (SF-539 CNS): > 100 µM
TGI (HOP-92 NSCLC): > 100 µM
TGI (LOX IMVI melanoma): > 100 µM
TGI (UO-31 renal): > 100 µM
TGI (HL-60(TB) leukemia): > 100 µM
TGI (HCT-116 colon): > 100 µM
TGI (RPMI-8226 leukemia): > 100 µM
TGI (NCI-H226 lung): > 100 µM
TGI (MOLT-4 leukemia): > 100 µM
TGI (SNB-78 CNS): > 100 µM
TGI (EKVX NSCLC): > 100 µM
TGI (SK-MEL-2 melanoma): > 100 µM
TGI (NCI-H23 lung): > 100 µM
TGI (HT29 colon): > 100 µM
TGI (DLD-1 colon): > 100 µM
TGI (CAKI-1 renal): > 100 µM
TGI (SK-OV-3 ovarian): > 100 µM
TGI (786-0 renal): > 100 µM
TGI (CCRF-CEM leukemia): > 100 µM
TGI (SW-620 colon): > 100 µM
TGI (IGROV1 ovarian): > 100 µM
TGI (HCT-15 colon): > 100 µM
TGI (SK-MEL-28 melanoma): > 100 µM
TGI (U251 CNS): > 100 µM
TGI (OVCAR-4 ovarian): > 100 µM
TGI (NCI-H522 lung): > 100 µM
TGI (OVCAR-8 ovarian): > 100 µM
TGI (LXFL 529 NSCLC): > 100 µM
TGI (NCI-H460 lung): > 100 µM
TGI (HOP-62 NSCLC): > 100 µM
TGI (UACC-257 melanoma): > 100 µM
TGI (SK-MEL-5 melanoma): > 100 µM
TGI (A498 renal): > 100 µM
TGI (OVCAR-3 ovarian): > 100 µM
TGI (DMS 273 small cell lung): > 100 µM
TGI (SF-295 CNS): > 100 µM
TGI (SF-268 CNS): > 100 µM
TGI (K-562 leukemia): > 100 µM
TGI (ACHN renal): > 100 µM
TGI (A549 NSCLC): > 100 µM
TGI (M14 melanoma): > 100 µM
TGI (M19-MEL melanoma): > 100 µM
TGI (COLO 205 colon): > 100 µM
TGI (SNB-75 CNS): > 100 µM
TGI (DMS 114 small cell lung): > 100 µM
